The test system of assay [1] is C57BL/6 female mice. Description: Acute murine model of DSS-induced gut barrier dysfunction (3% DSS). It is filed as in vivo, mouse. On the procedure: (§1) M. faecis and F. prausnitzii strains were grown to early stationary phase in TY medium. The cell density of the individual cultures was calculated using a Helber Counting Chamber. To prepare the bacterial gavage solutions, individual cultures were centrifuged under a layer of sterile heavy mineral oil at 5,000 g for 10 minutes and the cell-free supernatant was then discarded. The cell pellets were washed in 1.5 mL of sterile anaerobic buffered diluent (38 mL/L each of salt solutions 2 & 3 (McSweeney et al., 2005), 1 mL/L of 0.1% (w/v) resazurin solution, 1 g/L L-cysteine) and then centrifuged again. Finally, the washed cell pellet was resuspended in half strength glycerol solution (15% v/v glycerol solution in anoxic buffered diluent) to a final concentration of 1×10^9 cells/mL, aliquoted and frozen at −80° C. until required. The viability of the cell preparations was confirmed by thawing a single aliquot and streaking on an agar plate. The identity and purity of the individual strain preparations was confirmed by whole genome sequencing.
(§2) Six-week-old C57BL/6 female mice purchased from Animal Resources Centres (Western Australia, Australia) were randomised and then co-housed for seven days prior to experimentation. To induce gut barrier dysfunction, mice were treated with 3% DSS ad libiteum in the drinking water for six days. Naïve age matched control mice were processed and received DSS free drinking water. All treatments started one day prior to provision of DSS and all mice were sacrificed two days after the final DSS treatment. For the treatments, mice were anesthetised with isofluorane and orally gavaged with 200 μl of bacterial preparations or vehicle control. Prednisone (2 mg/kg) was administered following anesthetisation by intraperitoneal injection. Body weights and stool consistency were recorded daily. Stool samples were collected daily. Following sacrifice, the colon, liver and spleen were collected for analysis. Blood was collected by cardiac puncture. In the therapeutic model, six-week-old C57BL/6 female mice purchased from Animal Resources Centres (Western Australia, Australia) were randomised and then co-housed for seven days prior to experimentation. To induce gut barrier dysfunction, mice were treated with 2.5% DSS ad libiteum in the drinking water for six days. Naïve age matched control mice were processed and received DSS free drinking water. All treatments started two days prior to completion of the DSS treatments and all mice were sacrificed five days after the final DSS treatment. For the treatments, mice were anesthetised with isofluorane and orally gavaged with 200 μl of bacterial preparations or vehicle control. Prednisone (2 mg/kg) was administered following anesthetisation by intraperitoneal injection. […]

Assay [2] has as its system C57BL/6 female mice. Description: Therapeutic model of DSS induced murine colitis (2.5% DSS). In kind it is in vivo, mouse. To be noted: 2.5% DSS therapeutic model. On the procedure: as §1, §2
The subject of assay [3] is T84 cells. Nature of the assay: TEER recovery of barrier integrity after IFNγ (Maestro Pro system). In kind it is cell-based. To be noted: IFNγ for 72 hours, then treatment; extract relative to YG/V control. On the procedure: The ability of MH23 to promote recovery of barrier integrity was also assessed by using the Maestro Pro system. Briefly, T84 cells were grown in (DMEM/F12) supplemented with 10% heat-inactivated foetal bovine serum and 1% Penicillin-Streptomycin in T75 flasks at 37° C., 5% C02 until approximately 75% confluent. Cells were seeded at a density of 0.1×10^6 cells in a total of 0.2 mL/well in 96-well CytoView-Z plates and incubated at 37° C., 5% C02 in the Maestro Pro system (Axion BioSystems, Atlanta, GA, USA). Media was refreshed every three days. Once stabile TEER measurements had been established (approximately 100 h after seeding), cells were stimulated with recombinant human IFNγ (100 ng/mL; R&D systems, Minneapolis, MN, USA). At 72 h post-stimulation, cells were washed with dPBS (ThermoFisher Scientific, Waltham, MA, USA) and media was replaced with DMEM/F12 only, or DMEM/F12 supplemented with Pyrrolidine dithiocarbamate (PDTC; 50 μM), 1×YG/V media control or 1×MH23-3 bacterial culture supernatant extracts prepared using Amberlite XAD-7 resin as previously outlined. All conditions were analysed as quadruplicates. At 5 h post-treatment, TEER measurements were recorded, and the observed effect of treatment was presented as the percentage difference in TEER value compared to the control (untreated T84 cells). Statistical significance was determined by unpaired t-test.

Assay [4] concerns IL-8 secretion in the human gut epithelial HCT116 cell line. Nature of the assay: IL-8 secretion ELISA in IL-1β treated HCT116 cells (NF-κB activation). In kind it is cell-based. Conditions: HCT116 cells treated with IL-1β; cell free CS relative to the medium control. On the procedure:
For the ELISA assays, 1×10^4 cells/well of HCT116 cells were seeded in duplicate 96 well plates. HCT116 cells were treated with IL-1β (10 ng) and indole-3-carbinol (5 μM) or culture supernatant (10% v/v) as appropriate and incubated at 37° C. for 16 hours. Then, cell supernatants were collected and analysed using an IL-8 human uncoated ELISA Kit according to the manufacturer's instructions.
A general note: ELISA stands for enzyme-linked immunosorbent assay.

For assay [5], the system named is male BALB/c mice. Description: Acute murine model of TNBS-induced colitis. In kind it is in vivo, mouse. On the procedure:
Groups of 5 or 10 male BALB/c mice were used. Mice were fasted overnight (Day 1) before 2,4,6-Trinitrobenzene sulfonic acid solution (TNBS challenge on Day 2. Distal colitis was induced by intracolonic instillation of TNBS (1 mg in 0.1 mL 50% ethanol) after which, animals were kept in a vertical position for 30 seconds to ensure that the solution remained in the colon. For the treatments, mice were orally gavaged with 200 μl of M. faecis MH23-3 at 1×10^9 cells/day or vehicle (sterile glycerol and phosphate salt solution) starting from Day 1 (i.e., 1 day before TNBS) to Day 5 for a total of 5 consecutive days (Days 1-5). The positive control Cyclosporin A was given at 75 mg/kg by oral gavage once daily from Day 1 (i.e., 1 day before TNBS) to Day 4 for a total of 4 consecutive days (Days 1-4). On the Day of TNBS challenge, vehicle, M. faecis MH-23.3 and Cyclosporine A were given at 2 hours before TNBS. Animals were sacrificed on Day 5; blood was collected from all animals by cardiac puncture. The colon tissue was also harvested and snap frozen with liquid nitrogen for cytokine measurement. On Day 5, the mice were euthanized by CO2 asphyxiation. Each colon was removed, rinsed, and then cut from 4 cm from the anus. The tissue sections were fixed in 10% formalin and kept in 70% ethanol for histopathology. […]

Assay [6] deals with mild to moderate flares of ulcerative colitis. To be noted: cited from earlier work.
In assay [7] the test system is IL-23 mediated activation of STAT3. Nature of the assay: HEK-Blue IL-23 reporter cell line STAT3 inducible SEAP reporter assay. It is filed as cell-based, human. Conditions: cell free culture supernatant (strains grown in TY medium); tofacitinib as inhibitor control. On the procedure:
To assess STAT3 suppressive activity, three independent colonies were inoculated and grown until early stationary phase. Then, each seed culture broth was used to inoculate two technical replicates each generating six technical replicates from three biological replicates. The technical replicates were grown until early stationary phase and then cell free culture supernatant was harvested as previously described (Giri et al., 2019). Culture supernatants were size fractionated by passing through a 3 kDa CENTRICON® column according to the manufacturer's (Merck Millipore) instructions.
STAT3 activity was assessed using the HEK Blue IL-23 cell line (Invivogen). Briefly, 50,000 cells per well were seeded in triplicate in a 96-well plate 24 hours prior to the start of the assay. Bacteria supernatant or sterile bacterial medium were mixed at a final concentration of 10%, 25%, or 50% v/v with recombinant human IL-23 (rhIL-23, R&D systems) at a final concentration of 5 ng/mL. This mixture was then added directly to the cells and incubated at 37° C. for 6 hours. […] STAT3 regulated SEAP reporter activity was assessed using Quanti Blue solution as recommended by the manufacturer (Invivogen). […] Cytotoxicity was assessed using MTT assay. […] Cytotoxicity was assessed by measuring absorbance at 540 nm as recommended by the manufacturer (Invitrogen, Thermo Fisher, Australia).

Entries after “also recorded” stand apart in the source; their conditions may differ.

Consider `C[C@]12C=CC(=O)C=C1CC[C@@H]1[C@@H]2C(=O)C[C@@]2(C)[C@H]1CC[C@]2(O)C(=O)CO` [prednisone], for which, in assay [1], the “disease pathology / histopathological score” value is “significant improvement”, the epithelial injury result was “ameliorated” and the inflammation score result is reported as “ameliorated”. Also, the DSS-induced weight loss result in assay [1] (daily treatment) was “exacerbated”. Besides, in assay [2], the epithelial injury entry is recorded as “ameliorated”, the inflammation score entry was “ameliorated” and the “pathology / histopathological score” value is on record as “ameliorated”. Besides, in assay [2] (relative to the vehicle treatment group), the endoscopic disease activity result was “significant reduction”.

For `S=C(S)N1CCCC1` [PDTC, Pyrrolidine dithiocarbamate], in assay [3], the “TEER after IFNγ treatment (restoration of barrier integrity)” value is given as “ameliorated”.

As to `OCc1c[nH]c2ccccc12` [indole-3-carbinol], the IL-8 secretion entry in assay [4] is “prevented”.

As to cyclosporine A, in assay [5], the TNBS-induced histological damage entry was “ameliorated”.

Regarding `Nc1ccc(O)c(C(=O)O)c1` [Mesalmine], in assay [6], the response rates was 40%-70%.

As to `C[C@@H]1CCN(C(=O)CC#N)C[C@@H]1N(C)c1ncnc2[nH]ccc12` [tofacitinib], the “IL-23 mediated STAT3 activation (SEAP reporter activity)” value in assay [7] is recorded as “prevented; also recorded: inhibits”.

(Values after patent US20240226191A1, “COMPOSITIONS AND METHODS FOR TREATING DISEASE” (MICROBA IP PTY LTD, priority 2021, published 2024).)
